Test [1] relates to Pseudomonas aeruginosa. In words: Antibacterial activity against Pseudomonas aeruginosa PAO397 [PAO1 d(mexAB-oprM) d(mexCD-oprJ) d(mexEF-oprN) d(mexJKL) d(mexXY) d(opmH)] (CO-ADD:GN_211); MIC in CAMBH media using NBS plates, by OD(600). In kind it is functional. The note with it: ASSAY_TEST Inhibition of Bacterial Growth, detection method Absorption (OD600), MEDIA CAMHB, plate type 384well, CORNING #3640, time 18 hr.

Another test concerns HEK293. In words: cells. In kind it is functional, Homo sapiens, ATCC CRL1573. The note with it: Homo sapiens, ATCC CRL1573, HEK293; ASSAY_TEST Inhibition of Cell Viability; detection method Resazurin; Fluorescence (ex560/em590); MEDIA DMEM with 10% FBS; plate type 384well; TC; CORNING #3712; time 18 hr; read-out: CC50. In general terms: Resazurin is reduced to fluorescent resorufin, in cell work by metabolically active cells.

Another test deals with Acinetobacter baumannii. The experiment in a line: microbe, parasite or virus in culture. The following applies: ATCC 19606, 18 h, ASSAY_TEST Inhibition of Bacterial Growth, detection method Absorption (OD600), MEDIA CAMHB, plate type 384well, NBS, CORNING #3640.
Another test deals with Escherichia coli. In words: microbe, parasite or virus in culture. The following applies: ATCC 25922, 18 h, ASSAY_TEST Inhibition of Bacterial Growth, detection method Absorption (OD600), MEDIA CAMHB, plate type 384well, NBS, CORNING #3640.
Test [2] deals with Pseudomonas aeruginosa. In words: microbe, parasite or virus in culture. The following applies: ATCC 27853, 18 h, ASSAY_TEST Inhibition of Bacterial Growth, detection method Absorption (OD600), MEDIA CAMHB, plate type 384well, NBS, CORNING #3640.
Description: Antibacterial activity against Pseudomonas aeruginosa ATCC 27853 (CO-ADD:GN_042); MIC in CAMBH media using NBS plates, by OD(600)
The subject of a further test is Klebsiella pneumoniae. In words: microbe, parasite or virus in culture. The note with it: ATCC 700603, 18 h, ASSAY_TEST Inhibition of Bacterial Growth, detection method Absorption (OD600), MEDIA CAMHB, plate type 384well, NBS, CORNING #3640.
In the next test the test system is Staphylococcus aureus. The experiment in a line: microbe, parasite or virus in culture. The following applies: ATCC 43300, 18 h, ASSAY_TEST Inhibition of Bacterial Growth, detection method Absorption (OD600), MEDIA CAMHB, plate type 384well, NBS, CORNING #3640.
In the next test the test system is Candida albicans. The experiment in a line: microbe, parasite or virus in culture. The following applies: ATCC 90028, ASSAY_TEST Inhibition of Fungal Growth, detection method Absorption (OD530), plate type 384well, NBS, CORNING #3640.

Structures are written as SMILES. Converted amounts (≈) assume the structure as drawn. Where a name gives a salt, the structure may show the parent alone.

Description for Acinetobacter baumannii: Antibacterial activity against Acinetobacter baumannii ATCC 19606 (CO-ADD:GN_034); MIC in CAMBH media using NBS plates, by OD600
Description for Candida albicans: Antifungal activity against Candida albicans ATCC 90028 (CO-ADD:FG_001); MIC in YNB media using NBS plates, by OD630
Description for Cryptococcus neoformans: Antifungal activity against Cryptococcus neoformans H99 ATCC 208821 (CO-ADD:FG_002); MIC in YNB media using NBS plates, by Resazurin OD(600-570)
Description for Escherichia coli: Antibacterial activity against Escherichia coli ATCC 25922 (CO-ADD:GN_001); MIC in CAMBH media using NBS plates, by OD(600)
Description for Klebsiella pneumoniae: Antibacterial activity against Klebsiella pneumoniae MDR ATCC 70063 (CO-ADD:GN_003); MIC in CAMBH media using NBS plates, by OD(600)
Description for Staphylococcus aureus: Antibacterial activity against Staphylococcus aureus MRSA ATCC 43300 (CO-ADD:GP_020); MIC in CAMBH media, using NBS plates, by OD(600)

In the case of `Nc1cnn(C2OC(CO)C(O)C2O)c(=O)n1` (centres undefined), the MIC with Pseudomonas aeruginosa [1], against Acinetobacter baumannii, in the test with Escherichia coli, in the test on Cryptococcus neoformans, in the test with Pseudomonas aeruginosa [2] and against Klebsiella pneumoniae was more than 20 µM throughout. Also, the MIC in the test with Staphylococcus aureus and in the test with Candida albicans was more than 20 µM in each case. For the same molecule, in the test on HEK293, the half-maximal cytotoxic concentration (CC50) (usually the concentration giving 50% cytotoxicity) was more than 20 µM.
On to `O=C(NC1CCCc2c1[nH]c1ccc(Cl)cc21)c1ccccn1` (centres undefined), for which the MIC against Pseudomonas aeruginosa [1] is 20 µM (≈ 6.52 µg/mL); against Acinetobacter baumannii it was more than 20 µM; against Escherichia coli, more than 20 µM; against Cryptococcus neoformans, more than 20 µM; with Pseudomonas aeruginosa [2], more than 20 µM; with Klebsiella pneumoniae it was more than 20 µM. Also, the MIC against Staphylococcus aureus and in the test with Candida albicans was more than 20 µM in each case. Also, the cytotoxic concentration (CC50) in the test with HEK293 was more than 20 µM.
Take `C[C@H](c1cccc2ccccc12)N(C)Cc1ccccc1`: the MIC with Pseudomonas aeruginosa [1], against Acinetobacter baumannii, with Escherichia coli, in the test on Cryptococcus neoformans, against Pseudomonas aeruginosa [2] and in the test on Klebsiella pneumoniae was more than 20 µM in each case. Moreover, the MIC with Staphylococcus aureus and in the test with Candida albicans was more than 20 µM in each case. The CC50 with HEK293 is more than 20 µM.
As to `Cc1ccccc1NC(=O)Nc1cccc([N+](=O)[O-])c1`, the MIC against Pseudomonas aeruginosa [1], with Acinetobacter baumannii, with Escherichia coli, with Cryptococcus neoformans, in the test on Pseudomonas aeruginosa [2] and in the test on Klebsiella pneumoniae was more than 20 µM in each case. Further, the MIC in the test with Staphylococcus aureus and with Candida albicans was more than 20 µM each time. The half-maximal cytotoxic concentration (CC50) in the test with HEK293 is more than 20 µM.
With `N[C@H](CCC(=O)N[C@@H](Cc1c[nH]c2ccccc12)C(=O)O)C(=O)O` [GOLOTIMOD], the MIC against Pseudomonas aeruginosa [1], against Acinetobacter baumannii, with Escherichia coli, against Cryptococcus neoformans, in the test on Pseudomonas aeruginosa [2] and in the test on Klebsiella pneumoniae was more than 20 µM throughout. Further, the MIC with Staphylococcus aureus and in the test on Candida albicans was more than 20 µM throughout. Further, in the test on HEK293, the cytotoxic concentration (CC50) was more than 20 µM.
`N#CCN1C(=O)COc2cc(F)c(N3C(=O)c4ccccc4C3=O)cc21`: the MIC in the test with Pseudomonas aeruginosa [1], against Acinetobacter baumannii, against Escherichia coli, in the test with Cryptococcus neoformans, in the test with Pseudomonas aeruginosa [2] and with Klebsiella pneumoniae was more than 20 µM in each case. In addition, the MIC against Staphylococcus aureus and against Candida albicans was more than 20 µM in each case. Moreover, the CC50 in the test with HEK293 was more than 20 µM.
On to `C[N+]1(C)CCCC(OC(=O)C(O)(c2ccccc2)c2ccccc2)C1` (centres undefined) [MEPENZOLATE BROMIDE], for which the MIC against Pseudomonas aeruginosa [1], against Acinetobacter baumannii, against Escherichia coli, in the test on Cryptococcus neoformans, with Pseudomonas aeruginosa [2] and with Klebsiella pneumoniae was more than 20 µM each time. The MIC in the test with Staphylococcus aureus and against Candida albicans was more than 20 µM throughout. For the same molecule, the 50% cytotoxic concentration (CC50) in the test on HEK293 was more than 20 µM.
Consider `CCCC1(C2CC2)c2cc(Cl)ccc2NC(=O)N1C` (centres undefined), for which the MIC in the test with Pseudomonas aeruginosa [1], against Acinetobacter baumannii, against Escherichia coli, in the test on Cryptococcus neoformans, in the test with Pseudomonas aeruginosa [2] and against Klebsiella pneumoniae was more than 20 µM throughout. Moreover, the MIC in the test on Staphylococcus aureus and with Candida albicans was more than 20 µM throughout. Moreover, in the test with HEK293, the CC50 is more than 20 µM.
For the molecule `Nc1ccc2oc(=O)ccc2c1I`, the MIC in the test on Pseudomonas aeruginosa [1], in the test with Acinetobacter baumannii, with Escherichia coli, in the test on Cryptococcus neoformans, against Pseudomonas aeruginosa [2] and in the test with Klebsiella pneumoniae was more than 20 µM each time. Also, the MIC in the test with Staphylococcus aureus and in the test with Candida albicans was more than 20 µM each time. Besides, the CC50 in the test with HEK293 is more than 20 µM.
With `CC(C)Oc1cccc(NC(=O)c2ccccc2C(F)(F)F)c1` [FLUTOLANIL], the MIC in the test on Pseudomonas aeruginosa [1], in the test with Acinetobacter baumannii, in the test with Escherichia coli, in the test on Cryptococcus neoformans, with Pseudomonas aeruginosa [2] and in the test with Klebsiella pneumoniae was more than 20 µM throughout. Moreover, the MIC against Staphylococcus aureus and in the test on Candida albicans was more than 20 µM in each case. Besides, the cytotoxic concentration (CC50) with HEK293 was more than 20 µM.
Consider `O=C(Cc1ccccc1F)Nc1nc2ccccc2[nH]1`, for which the MIC against Pseudomonas aeruginosa [1], against Acinetobacter baumannii, in the test with Escherichia coli, with Cryptococcus neoformans, in the test with Pseudomonas aeruginosa [2] and against Klebsiella pneumoniae was more than 20 µM in each case. In addition, the MIC in the test with Staphylococcus aureus and with Candida albicans was more than 20 µM throughout. The CC50 with HEK293 is more than 20 µM.
With `FC(F)(F)Oc1ccc(Nc2ccc3cccc(Cl)c3n2)cc1` [OBEFAZIMOD], the MIC against Pseudomonas aeruginosa [1], in the test on Acinetobacter baumannii, against Escherichia coli, in the test on Cryptococcus neoformans, in the test on Pseudomonas aeruginosa [2] and in the test on Klebsiella pneumoniae was more than 20 µM throughout. For the same molecule, the MIC against Staphylococcus aureus and in the test with Candida albicans was more than 20 µM each time. Moreover, the half-maximal cytotoxic concentration (CC50) in the test with HEK293 was more than 20 µM.
As for `Nc1nnc(-c2ccc(Cl)cc2)s1`, the MIC in the test on Pseudomonas aeruginosa [1], against Acinetobacter baumannii, with Escherichia coli, in the test on Cryptococcus neoformans, in the test with Pseudomonas aeruginosa [2] and against Klebsiella pneumoniae was more than 20 µM each time. Also, the MIC in the test with Staphylococcus aureus and in the test with Candida albicans was more than 20 µM each time. In the test on HEK293, the cytotoxic concentration (CC50) was more than 20 µM.
Consider `O=C1NC(=O)C(Br)=C1Br`, for which the MIC against Pseudomonas aeruginosa [1] was more than 20 µM; with Acinetobacter baumannii, more than 20 µM; against Escherichia coli, more than 20 µM; against Cryptococcus neoformans it was 10 µM (≈ 2.55 µg/mL); in the test with Pseudomonas aeruginosa [2] it was more than 20 µM; in the test with Klebsiella pneumoniae it was more than 20 µM. The figures for the MIC in the test on Staphylococcus aureus and in the test with Candida albicans were more than 20 µM and 20 µM (≈ 5.1 µg/mL), respectively. In addition, in the test with HEK293, the CC50 stood at 3.28 µM.
Consider `CC(C)(C)c1ccc(Oc2ccc(N)cc2)cc1`, for which the MIC with Pseudomonas aeruginosa [1], against Acinetobacter baumannii, in the test on Escherichia coli, in the test on Cryptococcus neoformans, against Pseudomonas aeruginosa [2] and in the test with Klebsiella pneumoniae was more than 20 µM each time. For the same molecule, the MIC in the test on Staphylococcus aureus and in the test with Candida albicans was more than 20 µM each time. The half-maximal cytotoxic concentration (CC50) in the test on HEK293 was more than 20 µM.
As for `CCNC(=O)Nc1cc(-c2ccccc2)c(-c2cncc(C(=O)O)c2)cn1`, the MIC in the test on Pseudomonas aeruginosa [1], against Acinetobacter baumannii, against Escherichia coli, in the test on Cryptococcus neoformans, against Pseudomonas aeruginosa [2] and against Klebsiella pneumoniae was more than 20 µM each time. The MIC against Staphylococcus aureus and in the test on Candida albicans was more than 20 µM throughout. In the test on HEK293, the cytotoxic concentration (CC50) is more than 20 µM.
For `Cc1cc(C)n2nc(C(=O)NS(=O)(=O)c3c(C)cccc3OC(F)(F)F)nc2n1`, the MIC in the test on Pseudomonas aeruginosa [1], with Acinetobacter baumannii, with Escherichia coli, in the test with Cryptococcus neoformans, with Pseudomonas aeruginosa [2] and with Klebsiella pneumoniae was more than 20 µM throughout. Moreover, the MIC against Staphylococcus aureus and against Candida albicans was more than 20 µM each time. In addition, the cytotoxic concentration (CC50) in the test with HEK293 was more than 20 µM.
Take `CN(C/C=C/C#CC(C)(C)C)Cc1cccc2ccccc12` [TERBINAFINE HYDROCHLORIDE]: the MIC with Pseudomonas aeruginosa [1] was more than 20 µM; against Acinetobacter baumannii, more than 20 µM; with Escherichia coli it was more than 20 µM; against Cryptococcus neoformans, 20 µM; against Pseudomonas aeruginosa [2], more than 20 µM; with Klebsiella pneumoniae it was more than 20 µM. For the same molecule, the MIC in the test on Staphylococcus aureus and in the test on Candida albicans was more than 20 µM in each case. Also, the CC50 in the test on HEK293 was more than 20 µM.
For the molecule `C[C@@H](NC(=O)c1ccccc1-c1ccccc1)B(O)O`, the MIC against Pseudomonas aeruginosa [1], in the test with Acinetobacter baumannii, against Escherichia coli, against Cryptococcus neoformans, against Pseudomonas aeruginosa [2] and in the test on Klebsiella pneumoniae was more than 20 µM in each case. Besides, the MIC in the test with Staphylococcus aureus and against Candida albicans was more than 20 µM each time. In the test with HEK293, the 50% cytotoxic concentration (CC50) was more than 20 µM.
As for `COc1ccc2c(c1OC)C(=O)OC2C1c2c(cc3c(c2OC)OCO3)CCN1C` (centres undefined), the MIC against Pseudomonas aeruginosa [1], in the test on Acinetobacter baumannii, with Escherichia coli, with Cryptococcus neoformans, against Pseudomonas aeruginosa [2] and against Klebsiella pneumoniae was more than 20 µM throughout. For the same molecule, the MIC in the test on Staphylococcus aureus and with Candida albicans was more than 20 µM each time. Also, the half-maximal cytotoxic concentration (CC50) with HEK293 was more than 20 µM.
Turning to `Cc1ccc(NC(=O)c2cc(Cl)ccc2O)cc1`, the MIC with Pseudomonas aeruginosa [1], in the test with Acinetobacter baumannii, in the test with Escherichia coli, with Cryptococcus neoformans, with Pseudomonas aeruginosa [2] and against Klebsiella pneumoniae was more than 20 µM in each case. Further, the MIC in the test on Staphylococcus aureus and in the test with Candida albicans was more than 20 µM each time. Further, the half-maximal cytotoxic concentration (CC50) in the test on HEK293 was determined as 3.91 µM.

For the origin of these results see ChEMBL document CHEMBL4513161, “CO-ADD screening of MMV (CH) - Pandemic Response Box” (2021).
